# Results from patent US11396522B2, “Bis-acetal-based substrates for imaging exo-glycosidase activity” (ALECTOS THERAPEUTICS INC., priority 2017, dated 2022).
# Tests used:
# hOGA [1] = biological target: T1, hOGA (Homo sapiens, UniProt O60502); assay: Interrupted assay for determination of hemiacetal breakdown; type: biochemical; settings: hemiacetal generated from the substrate; hOGA stopped after 1 min with Thiamet-G 100 μM
# T1 construct: started by addition of hOGA (WT, Full-length, expressed in E. coli. as previously described); made in house; host or cells: E. coli
# T1 sequence (O60502 1-916): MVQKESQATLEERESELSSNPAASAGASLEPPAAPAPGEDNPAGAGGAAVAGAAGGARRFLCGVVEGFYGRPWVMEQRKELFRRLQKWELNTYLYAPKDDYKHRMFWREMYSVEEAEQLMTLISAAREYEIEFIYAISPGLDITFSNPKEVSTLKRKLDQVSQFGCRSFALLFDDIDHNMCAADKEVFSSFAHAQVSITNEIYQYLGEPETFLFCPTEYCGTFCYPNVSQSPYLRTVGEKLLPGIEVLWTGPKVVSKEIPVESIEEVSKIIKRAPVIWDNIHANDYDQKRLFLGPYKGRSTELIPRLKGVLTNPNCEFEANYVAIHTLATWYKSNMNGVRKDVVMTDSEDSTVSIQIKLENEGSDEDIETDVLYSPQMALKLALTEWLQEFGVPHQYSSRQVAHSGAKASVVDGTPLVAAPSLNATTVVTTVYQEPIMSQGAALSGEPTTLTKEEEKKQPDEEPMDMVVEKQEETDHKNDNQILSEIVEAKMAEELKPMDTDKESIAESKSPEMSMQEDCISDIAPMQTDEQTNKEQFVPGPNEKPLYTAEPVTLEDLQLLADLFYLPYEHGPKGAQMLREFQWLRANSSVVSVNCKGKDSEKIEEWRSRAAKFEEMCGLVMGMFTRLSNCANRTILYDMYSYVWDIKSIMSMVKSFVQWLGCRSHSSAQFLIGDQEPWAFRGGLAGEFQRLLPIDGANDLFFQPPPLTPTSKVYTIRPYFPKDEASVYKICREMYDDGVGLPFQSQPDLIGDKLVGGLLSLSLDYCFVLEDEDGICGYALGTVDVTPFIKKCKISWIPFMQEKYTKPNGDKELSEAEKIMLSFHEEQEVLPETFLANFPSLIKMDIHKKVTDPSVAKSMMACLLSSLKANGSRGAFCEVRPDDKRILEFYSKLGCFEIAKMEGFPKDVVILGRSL
# Protocol: For some experiments, fluorescence kinetic assays were performed using a Varian Cary Eclipse Spectrophotometer set for 335/493 nm excitation/emission wavelengths. Slits were set at 10 nm and the detector was set on Medium voltage. Enzymatic reactions with human OGA were carried out in PBS at 37° C. and were started by addition of hOGA (WT, Full-length, expressed in E. coli. as previously described) in a total volume of 160 μL (Starna sub-micro Fluorometer cuvette). For measurements of rates using different concentrations of substrates, a hOGA concentration of 100 nM was used. For hOGA titration, 25 μM of Glyco-BABS were added to various concentration of hOGA. For interrupted assay, reaction was started by addition of hOGA (680 nM final) in solutions of GlcNAc-BABS in PBS. […] For hemiacetal breakdown rate measurements, data after Thiamet-G addition was extracted and fitted using Prism software. EDANS standard curve was established using endpoint fluorescence measurements of serial dilutions of EDANS in the relevant buffer using the same instrument parameters. Inner-Filter effect measurements were carried out in cuvette by measuring fluorescence of several concentrations of EDANS in presence of various concentrations of GlcNAc-BABS. Kinetics with Glc-BABS and GBA enzymes (GBA1 and GBA3 purchased from R&D Systems), kinetics with GALC (R&D systems) and Gal-BABS, pH stability, quenching efficiency, some inner-filter effect experiments and lysates experiments were carried out using a Molecular Devices SpectraMax i3× plate reader. Emission/Excitation wavelengths were set at 350 and 490 nm respectively for EDANS/DABCYL Glyco-BABS and at 565 and 610 nm respectively for TAMRA/BHQ2 Glyco-BABS. Fluorescence measurements were performed using Costar 96-well black plates or Nunc 384-well black plates after sample preparation in 96-well mixing plates. For GBA1, the continuous assay was performed in citrate buffer (50 mM, pH 5.5) in the presence of 0.1% Triton, 1 mg/mL BSA and 0.14% taurodeoxycholate at 25° C. […]
# [2] = pH stability of Glyco-BABS; type: physicochemical; settings: 5 μM, up to 72 h, pH 2 to 10
# Excerpt: One concern with the Glyco-BABS design was the known lability of acetals under acidic conditions that has been exploited in pH-sensitive prodrugs or linkers for drug delivery.^41,42 However, we recognized that carbohydrate anomeric acetals are chemically distinct from regular acetals. Due to stabilization by the endocyclic oxygen, we expected these bis-acetals would show stability across a range of physiological pH values. We therefore assessed the stability of the bis-acetal motif toward acid and base hydrolysis (FIG. 8). To do so, we tested the pH stability of 5 μM of GlcNAc-Br-BABS 1, GlcNAc-OH-BABS 2, Glc-OH-BABS 6 and Glc-H-BABS 7 at different pH over time. We prepared solutions at various pH by mixing 0.2 M KCl+0.1 M HCl with 0.2 M KCl+0.1 M KOH. Fluorescence of EDANS and Glyco-BABS solutions (5 μM, 45 μL) at different pH was measured at different time points in Nunc 384-well plates using a SpectraMax i3× plate reader. Data (triplicates) support the highly efficient quenching and the stability of these substrates over a wide range of pH.
# hOGA [3] = biological target: T1, hOGA; assay: Turnover by hOGA within SK-N-SH lysate; type: biochemical
# Protocol: For cell lysates experiments, SK-N-SH cells were cultured in EMEM media supplemented with 10% FBS and Penicillin/Streptomycin antibiotics. Cells were collected, washed with PBS and lyzed using ice-cold NP-40 lysis buffer (TRIS-HCl 50 mM pH 7.4, NP-40 1%, NaCl 150 mM). After centrifugation, the supernatant was diluted in PBS. The quantity of lysate used in each measurement well (384-well plate) was equivalent to 25000 cells. […] Reactions were started by adding the substrate at a final concentration of 20 μM. This experiment was carried out in quadruplicates and the rates were determined by establishing a standard curve for EDANS fluorescence in the SK-N-SH lysate.
# To evaluate the compatibility of the BABS design with complex cellular extracts, we also measured the turnover of GlcNAc-Br-BABS in SK-N-SH cell lysate in the presence of increasing concentrations of hOGA (FIG. 9). […] Buffer control consists of PBS supplemented to lysis buffer. […] Error bars represent standard deviation over quadruplicate.
# [4] = biological target: T2, human Galactosylceramidase (GALC) (Homo sapiens, UniProt P54803); assay: In vitro kinetic assay with human GALC; type: biochemical; settings: 5 nM recombinant human GALC
# T2 construct: purchased R&D systems
# T2 sequence (P54803 43-685): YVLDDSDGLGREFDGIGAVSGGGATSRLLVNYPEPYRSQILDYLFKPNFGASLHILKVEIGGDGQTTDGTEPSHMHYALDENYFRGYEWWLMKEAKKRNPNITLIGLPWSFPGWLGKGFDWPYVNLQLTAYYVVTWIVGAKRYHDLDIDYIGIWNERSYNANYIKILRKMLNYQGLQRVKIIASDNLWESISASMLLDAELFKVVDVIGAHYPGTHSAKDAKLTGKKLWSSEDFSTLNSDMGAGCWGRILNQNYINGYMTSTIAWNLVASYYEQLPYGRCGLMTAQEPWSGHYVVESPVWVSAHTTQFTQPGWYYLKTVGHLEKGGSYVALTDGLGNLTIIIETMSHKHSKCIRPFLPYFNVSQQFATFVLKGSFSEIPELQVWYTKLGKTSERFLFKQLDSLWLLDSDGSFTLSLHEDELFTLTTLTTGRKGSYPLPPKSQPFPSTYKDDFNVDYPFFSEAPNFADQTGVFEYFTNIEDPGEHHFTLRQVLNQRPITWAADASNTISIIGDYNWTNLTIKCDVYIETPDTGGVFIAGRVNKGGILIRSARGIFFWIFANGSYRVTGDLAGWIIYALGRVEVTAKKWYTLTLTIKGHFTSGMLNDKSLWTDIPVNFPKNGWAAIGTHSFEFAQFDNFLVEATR
# Protocol: For some experiments, fluorescence kinetic assays were performed using a Varian Cary Eclipse Spectrophotometer set for 335/493 nm excitation/emission wavelengths. Slits were set at 10 nm and the detector was set on Medium voltage. Enzymatic reactions with human OGA were carried out in PBS at 37° C. and were started by addition of hOGA (WT, Full-length, expressed in E. coli. as previously described) in a total volume of 160 μL (Starna sub-micro Fluorometer cuvette). For measurements of rates using different concentrations of substrates, a hOGA concentration of 100 nM was used. For hOGA titration, 25 μM of Glyco-BABS were added to various concentration of hOGA. […] EDANS standard curve was established using endpoint fluorescence measurements of serial dilutions of EDANS in the relevant buffer using the same instrument parameters. Inner-Filter effect measurements were carried out in cuvette by measuring fluorescence of several concentrations of EDANS in presence of various concentrations of GlcNAc-BABS. Kinetics with Glc-BABS and GBA enzymes (GBA1 and GBA3 purchased from R&D Systems), kinetics with GALC (R&D systems) and Gal-BABS, pH stability, quenching efficiency, some inner-filter effect experiments and lysates experiments were carried out using a Molecular Devices SpectraMax i3× plate reader. […]
# human O-GlcNAcase (hOGA) = biological target: T3, human O-GlcNAcase (hOGA) (Homo sapiens, UniProt O60502); settings: literature value (ref 39); cited from earlier work
# T3 construct: started by addition of hOGA (WT, Full-length, expressed in E. coli. as previously described); made in house; host or cells: E. coli
# T3 sequence (O60502 1-916): T1 sequence (O60502 1-916)
smiles,measurement,setting,value
"CC(=O)N[C@H]1[C@H](O[C@@H](OCCOCCn2cc(CNC(=O)c3ccc(/N=N/c4ccc(N(C)C)cc4)cc3)nn2)[C@@](C)(Br)C(=O)NCCNc2cccc3c(S(=O)(=O)O)cccc23)O[C@H](CO)[C@@H](O)[C@@H]1O [Compound 1, 5-((2-((2R,3R)-3-(((2S,3R,4R,5S,6R)-3-acetamido-4,5-dihydroxy-6-(hydroxymethyl)tetrahydro-2H-pyran-2-yl)oxy)-2-bromo-3-(2-(2-(4-((4-((E)-(4-(dimethylamino)phenyl)diazenyl)benzamido)methyl)-1H-1,2,3-triazol-1-yl)ethoxy)ethoxy)-2-methylpropanamido)ethyl)amino)naphthalene-1-sulfonic Acid]",first order rate constant (k3) for hemiacetal breakdown,hOGA [1],0.01 s⁻¹
same,pH stability (increase of fluorescence),[2],no significant increase of fluorescence
same,turnover in SK-N-SH cell lysate with added hOGA,"hOGA [3]; 20 μM substrate, 25° C., increasing hOGA",efficiently processed within lysates
"CN(C)c1ccc(/N=N/c2ccc(C(=O)NCc3cn(CCOCCO[C@H](O[C@@H]4O[C@H](CO)[C@H](O)[C@H](O)[C@H]4O)[C@@](C)(Br)C(=O)NCCNc4cccc5c(S(=O)(=O)O)cccc45)nn3)cc2)cc1 [Compound 4, 5-((2-((2R,3R)-2-bromo-3-(2-(2-(4-((4-((E)-(4-(dimethylamino)phenyl)diazenyl)benzamido)methyl)-1H-1,2,3-triazol-1-yl)ethoxy)ethoxy)-2-methyl-3-(((2S,3R,4S,5R,6R)-3,4,5-trihydroxy-6-(hydroxymethyl)tetrahydro-2H-pyran-2-yl)oxy)propanamido)ethyl)amino)naphthalene-1-sulfonic Acid]",turnover by human GALC,[4],turned over
"CN(C)c1ccc(/N=N/c2ccc(C(=O)NCc3cn(CCOCCO[C@H](O[C@@H]4O[C@H](CO)[C@H](O)[C@H](O)[C@H]4O)[C@@](C)(O)C(=O)NCCNc4cccc5c(S(=O)(=O)O)cccc45)nn3)cc2)cc1 [Compound 5, 5-((2-((2R,3R)-3-(2-(2-(4-((4-((E)-(4-(dimethylamino)phenyl)diazenyl)benzamido)methyl)-1H-1,2,3-triazol-1-yl)ethoxy)ethoxy)-2-hydroxy-2-methyl-3-(((2S,3R,4S,5R,6R)-3,4,5-trihydroxy-6-(hydroxymethyl)tetrahydro-2H-pyran-2-yl)oxy)propanamido)ethyl)amino)naphthalene-1-sulfonic Acid]",turnover by human GALC,[4],turned over
"CCNC1=N[C@@H]2[C@@H](O)[C@H](O)[C@@H](CO)O[C@@H]2S1 [Thiamet-G, (3aR,5R,6S,7R,7aR)-2-(ethylamino)-3a,6,7,7a-tetrahydro-5-(hydroxymethyl)-5H-Pyrano[3,2-d]thiazole-6,7-diol, reference compound]",inhibition of substrate turnover in SK-N-SH lysate,"hOGA [3]; Thiamet-G 200 μM, substrate GlcNAc-Br-BABS 1",completely inhibits
CO[C@@H]1O[C@H](CO)[C@@H](O)[C@H](O)[C@H]1NC(C)=O [methyl β-D-N-acetylglucopyranoside],second order rate constant with hOGA,human O-GlcNAcase (hOGA),440 M⁻¹ s⁻¹
